Source: publication PMC1069517 (Nucleic Acids Research, 2005)

T1: a/eIF2 β–γ dimer (Saccharolobus solfataricus, UniProt Q980A5)
T1 sequence (Q980A5 1-415): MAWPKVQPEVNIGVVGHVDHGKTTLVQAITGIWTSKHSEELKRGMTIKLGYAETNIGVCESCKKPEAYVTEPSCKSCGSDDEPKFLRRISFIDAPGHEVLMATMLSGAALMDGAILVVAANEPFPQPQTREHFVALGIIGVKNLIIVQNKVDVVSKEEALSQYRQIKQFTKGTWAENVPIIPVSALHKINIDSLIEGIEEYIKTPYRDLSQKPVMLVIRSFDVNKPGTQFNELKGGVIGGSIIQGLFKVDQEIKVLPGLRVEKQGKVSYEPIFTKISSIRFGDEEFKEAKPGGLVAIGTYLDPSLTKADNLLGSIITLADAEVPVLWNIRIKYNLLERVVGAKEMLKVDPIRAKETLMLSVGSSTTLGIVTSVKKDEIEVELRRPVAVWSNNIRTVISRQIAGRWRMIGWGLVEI
T1 sequence (Q97W59 1-139 partner): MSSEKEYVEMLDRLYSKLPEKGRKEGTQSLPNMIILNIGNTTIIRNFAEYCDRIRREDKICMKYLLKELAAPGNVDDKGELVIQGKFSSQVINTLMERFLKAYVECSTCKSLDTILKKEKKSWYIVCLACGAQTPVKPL

T2: a/eIF2 α–γ dimer (Saccharolobus solfataricus, UniProt Q980A5)
T2 sequence (Q980A5 1-415): T1 sequence (Q980A5 1-415)
T2 sequence (Q97Z79 1-266 partner): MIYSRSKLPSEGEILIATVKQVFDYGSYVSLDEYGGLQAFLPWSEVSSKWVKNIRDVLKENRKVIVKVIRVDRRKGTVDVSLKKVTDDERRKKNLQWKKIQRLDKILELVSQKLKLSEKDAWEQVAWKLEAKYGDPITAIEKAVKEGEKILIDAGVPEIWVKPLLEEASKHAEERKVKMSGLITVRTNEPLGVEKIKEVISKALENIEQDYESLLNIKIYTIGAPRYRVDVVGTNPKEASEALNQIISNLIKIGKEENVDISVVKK

T3: a/eIF2 alpha subunit;a/eIF2 gamma subunit (Saccharolobus (Sulfolobus) …, UniProt Q97Z79;Q980A5 1-266;1-415, |)
T3 sequence 1: T2 sequence (Q97Z79 1-266 partner)
T3 sequence 2: T1 sequence (Q980A5 1-415)

T4: a/eIF2 alpha subunit;a/eIF2 beta subunit;a/eIF2 gamma subunit (Saccharolobus (Sulfolobus) …, UniProt Q97Z79;Q97W59;Q980A5 1-266;1-139;1-415, ||)
T4 sequence 1: T2 sequence (Q97Z79 1-266 partner)
T4 sequence 2: T1 sequence (Q97W59 1-139 partner)
T4 sequence 3: T1 sequence (Q980A5 1-415)

B1: [35S]Met-tRNAi (structured_RNA)
RNA: AGCGGGGUGGGCUAGCCUGGUAAGGCCGCGGGGCUCAUAACCCCGAGGUCCCUGGUUCAAAUCCAGGCCCCGCUACCA
modifications: 3' aminoacylated with methionine; no base modifications (in vitro transcript)

Columns and labels:
a/eIF2 β–γ dimer = biological target: T1, a/eIF2 β–γ dimer; assay: nitrocellulose filter binding; conditions: 65 °C, 30 mM KCl, 50 mM HEPES pH 7.5, 0.5 mM MgCl2, 1 mM DTT; labelled compound
a/eIF2 α–γ dimer = biological target: T2, a/eIF2 α–γ dimer; assay: nitrocellulose filter binding; conditions: 65 °C, 30 mM KCl, 50 mM HEPES pH 7.5, 0.5 mM MgCl2, 1 mM DTT; labelled compound
[1] = biological target: T3, a/eIF2 alpha subunit;a/eIF2 gamma …; assay: filter binding
[2] = biological target: T4, a/eIF2 alpha subunit;a/eIF2 beta …; assay: filter binding

Row | Molecule | nitrocellulose filter binding (a/eIF2 β–γ dimer) | nitrocellulose filter binding (a/eIF2 α–γ dimer) | binding result [1] | binding result [2]
1 | Nc1nc2c(ncn2[C@@H]2O[C@H](COP(=O)(O)OP(=O)(O)O)[C@@H](O)[C@H]2O)c(=O)[nH]1 [GDP] | displayed GDP and GTP binding curves essentially overlapping with those obtained with the γ-subunit alone | displayed GDP and GTP binding curves essentially overlapping with those obtained with the γ-subunit alone |  | 
2 | Nc1nc2c(ncn2[C@@H]2O[C@H](COP(=O)(O)OP(=O)(O)OP(=O)(O)O)[C@@H](O)[C@H]2O)c(=O)[nH]1 [GTP] | displayed GDP and GTP binding curves essentially overlapping with those obtained with the γ-subunit alone | displayed GDP and GTP binding curves essentially overlapping with those obtained with the γ-subunit alone |  | 
3 | B1 |  |  | binds | binds
